Test results reported in patent publication US20240016881A1, “Coronavirus Therapy” (priority 2020, published 2024).
Several values for one entry are separate records, joined by “and”; a condition that tells them apart may be missing. Equal values may be shown once. Where no end group is shown, it is not given here.

How the values were obtained:
[1] = Fasting plasma glucagon in subjects with Type 2 diabetes treated with NDX-90 peptide; type: in vivo, human
Text: The inventor then measured the effect of NDX-90 peptide treatment over several months on fasting plasma glucagon levels in subjects with Type 2 diabetes.

[2] = ELISA binding of NDX-90 peptide to cardiolipin-coated microtitre plate
Text: Each mean and standard deviation is for three observations.

[3] = test system: buccal tissue culture inserts; experiment: Buccal tissue permeability (cell permeation, HPLC peak area of supernatant); type: in vitro ADME
Method: Buccal tissue culture inserts were transferred from the original tissue culture 24-well plates (maintained at 4° C. in sealed bags containing 5% CO2) under sterile conditions into wells of a fresh 24-well plate containing 1.0 ml serum free medium pre-warmed to 37° C. The plate was incubated in a humidified incubator at 37° C. in a 5% CO2 atmosphere for one hour as a pre-equilibration procedure prior to dosing. After removal from the incubator, any culture medium over the surface of the tissue was carefully removed and replaced with 40 μL of appropriately diluted peptide solution in serum free culture medium. The plate was incubated for further 30 minutes at 37° C. in a 5% CO2 atmosphere. The plate was removed from the incubator and supernatant samples were taken and analysed by HPLC. The main peak areas of the supernatants were compared to those of the pre-incubation stock samples.
The inventor next measured buccal tissue permeability of NDX-90 peptide, to determine its uptake.

[4] = test system: isolated rat islet cultures; experiment: Glucagon levels secreted from isolated rat islet cultures, medium plus NDX-90 vs medium alone; type: cell-based; conditions: for Glucagon level (pg/ml) Medium plus NDX-90: NDX-90 1 μg/ml, 11 mmol/L glucose; for Percentage reduction of glucagon secretion: vs medium alone
Method: Isolated islets were suspended in RPMI 1640 containing 11 mmol/L (200 mg/dL) glucose and 10% FCS. The glucose concentration simulates a diabetic environment. NDX-90 was dissolved in the culture medium and added to the appropriate wells at a final concentration of 1 μg/ml. After the specified incubation times, samples were removed for glucagon measurements using Quantikine ELISA Immunoassay (R&D Systems).
The inventor measured glucagon levels secreted from isolated rat islet cultures, to determine whether NDX-90 was capable of reducing glucagon levels.

soluble ACE2 = experiment: Soluble ACE2 ELISA in cultures of human islet cells from Type 2 diabetes tissue donors; type: cell-based; conditions: for % reduction soluble ACE2 100-(T/Cx100): vs control cultures
Method: The inventor next measured the effect of NDX-90 peptide on soluble ACE2 levels in cultures of human islet cells from Type 2 diabetes tissue donors. Human pancreatic islet cells were cultured in 24-well tissue culture plates. Two series of cultures were set up. NDX-90 peptide solution was added to one series and an equivalent amount of culture medium was added to the second series. Supernatant samples were removed from the test and control cultures at 4, 24 and 48 hours after addition of the treatment. Supernatant samples were removed only once from each test and control well for each time point. The samples were tested for soluble ACE2 by the use of a commercial ELISA kit according to the manufacturer's instructions.

Sequence: QQYNSYPLT (also: dimer) [NDX-90, b142 says NDX-90 is a dimer]
- Improvement in fasting glucagon towards normality ([1]; 9.61 pg/ml relative to literature excess of 12.2 pg/ml in Type 2 diabetes vs nondiabetic controls): 78.8%
- Difference baseline vs treated fasting plasma glucagon ([1]; day 1 vs mean of days 43, 99 and 113, P = 0.009, listed as NDX-90 peptide): 9.61 pg/mL
- Baseline ± sd fasting plasma glucagon ([1]; mean baseline on day 1, n = 23, Type 2 diabetes): 103 ± 38.3 pg/mL
- Treated ± sd fasting plasma glucagon ([1]; mean of measurements on days 43, 99 and 113, n = 23, Type 2 diabetes): 93.47 ± 32.3 pg/mL
- Binding to cardiolipin [2]: has the capacity to bind to cardiolipin
- Ratio Test/Control (cardiolipin / alcohol optical density) [2]: 2.23
- Optical density reading in ELISA, cardiolipin-coated plate ([2]; mean and standard deviation for three observations): 0.254 ± 0.012
- Transmissibility across / uptake by buccal tissue [3]: efficient uptake
- Transmissibility % ([3]; Table 5 screening, 30 minutes): 94.1%
- Peak Area by HPLC of Peptides in solution Pre-overlay ([3]; Table 5 screening, stock before incubation): 4142
- Peak Area by HPLC of Peptides in solution Post-overlay ([3]; Table 5 screening, supernatant after 30 minutes at 37° C.): 243
- Peak Area by HPLC R1 ([3]; Table 6, replicate culture 1): 276
- Transmissibility T % (R1) ([3]; Table 6, replicate culture 1): 93.3%
- Peak Area by HPLC R3 ([3]; Table 6, replicate culture 3): 0
- Transmissibility T % (R3) ([3]; Table 6, replicate culture 3): 100%
- Peak Area by HPLC Pre-overlay ([3]; Table 6 triplicate cultures, stock): 4142
- Difference (pg/ml) medium alone vs medium plus NDX-90 ([4]; 4 hours): 203.0 pg/mL
- Glucagon level (pg/ml) Medium plus NDX-90 ([4]; 4 hours): 419.3 ± 2.5 pg/mL
- Percentage reduction of glucagon secretion ([4]; 4 hours): 32% and 32.4%
- Difference (pg/ml) medium alone vs medium plus NDX-90 ([4]; 24 hours): 102.9 pg/mL
- Glucagon level (pg/ml) Medium plus NDX-90 ([4]; 24 hours): 149.6 ± 6.7 pg/mL
- Percentage reduction of glucagon secretion ([4]; 24 hours): 40.9%
- Glucagon level (pg/ml) Medium plus NDX-90 ([4]; 48 hours): 63.4 ± 1.3 pg/mL
- Percentage reduction of glucagon secretion ([4]; 48 hours): 0%
- % reduction soluble ACE2 100-(T/Cx100) (soluble ACE2; 4 hours): 5.3%
- % reduction soluble ACE2 100-(T/Cx100) (soluble ACE2; 4 hours, listed as NDX-90 Peptide): 5.3%
- % reduction soluble ACE2 100-(T/Cx100) (soluble ACE2; 24 hours): 6.25%
- % reduction soluble ACE2 100-(T/Cx100) (soluble ACE2; 24 hours, listed as NDX-90 Peptide): 6.25%
- Reduction of soluble ACE2 (soluble ACE2; 48 hours): No further reduction
